Measurements published in ChEMBL document CHEMBL1201861, “Genomics of Drug Sensitity in Cancer screening data, Wellcome Trust Sanger Institute”.
Structures can show the parent of a compound that is named as a salt.

How the values were obtained:
NCI-H1770 = assay: cells; format: functional, cell-based, Homo sapiens; conditions: Homo sapiens, NCI-H1770
Description: SANGER: Inhibition of human NCI-H1770 cell growth in a cell viability assay.

BEN = assay: cells; format: functional, cell-based, Homo sapiens; conditions: Homo sapiens, BEN
Description: SANGER: Inhibition of human BEN cell growth in a cell viability assay.

NCI-H522 = assay: cells; format: functional, cell-based, Homo sapiens; conditions: Homo sapiens, NCI-H522
Description: SANGER: Inhibition of human NCI-H522 cell growth in a cell viability assay.

GP5d = assay: cells; format: functional, cell-based, Homo sapiens; conditions: Homo sapiens, GP5d
Description: SANGER: Inhibition of human GP5d cell growth in a cell viability assay.

EB-3 = assay: cells; format: functional, cell-based, Homo sapiens; conditions: Homo sapiens, EB-3
Description: SANGER: Inhibition of human EB-3 cell growth in a cell viability assay.

GI-ME-N = assay: cells; format: functional, cell-based, Homo sapiens; conditions: Homo sapiens, GI-ME-N
Description: SANGER: Inhibition of human GI-ME-N cell growth in a cell viability assay.

EGI-1 = assay: cells; format: functional, cell-based, Homo sapiens; conditions: Homo sapiens, EGI-1
Description: SANGER: Inhibition of human EGI-1 cell growth in a cell viability assay.

MKN-7 = assay: cells; format: functional, cell-based, Homo sapiens; conditions: Homo sapiens, MKN-7
Description: SANGER: Inhibition of human MKN7 cell growth in a cell viability assay.

RS4-11 = assay: cells; format: functional, cell-based, Homo sapiens; conditions: Homo sapiens, RS4-11
Description: SANGER: Inhibition of human RS4-11 cell growth in a cell viability assay.

NCI-H2141 = assay: cells; format: functional, cell-based, Homo sapiens; conditions: Homo sapiens, NCI-H2141
Description: SANGER: Inhibition of human NCI-H2141 cell growth in a cell viability assay.

SCC-9 = assay: cells; format: functional, cell-based, Homo sapiens; conditions: Homo sapiens, SCC-9
Description: SANGER: Inhibition of human SCC-9 cell growth in a cell viability assay.

BB49-HNC = assay: cells; format: functional, cell-based, Homo sapiens; conditions: Homo sapiens, BB49-HNC
Description: SANGER: Inhibition of human BB49-HNC cell growth in a cell viability assay.

A-375 = assay: cells; format: functional, cell-based, Homo sapiens; conditions: Homo sapiens, A-375
Description: SANGER: Inhibition of human A375 cell growth in a cell viability assay.

NCI-H1437 = assay: cells; format: functional, cell-based, Homo sapiens; conditions: Homo sapiens, NCI-H1437
Description: SANGER: Inhibition of human NCI-H1437 cell growth in a cell viability assay.

DU-4475 = assay: cells; format: functional, cell-based, Homo sapiens; conditions: Homo sapiens, DU-4475
Description: SANGER: Inhibition of human DU-4475 cell growth in a cell viability assay.

LAN-6 = assay: cells; format: functional, cell-based, Homo sapiens; conditions: Homo sapiens, LAN-6
Description: SANGER: Inhibition of human LAN-6 cell growth in a cell viability assay.

U-118-MG = assay: cells; format: functional, cell-based, Homo sapiens; conditions: Homo sapiens, U-118-MG
Description: SANGER: Inhibition of human U-118-MG cell growth in a cell viability assay.

Ca9-22 = assay: cells; format: functional, cell-based, Homo sapiens; conditions: Homo sapiens, Ca9-22
Description: SANGER: Inhibition of human Ca9-22 cell growth in a cell viability assay.

HD-MY-Z = assay: cells; format: functional, cell-based, Homo sapiens; conditions: Homo sapiens, HD-MY-Z
Description: SANGER: Inhibition of human HD-MY-Z cell growth in a cell viability assay.

NCI-H1155 = assay: cells; format: functional, cell-based, Homo sapiens; conditions: Homo sapiens, NCI-H1155
Description: SANGER: Inhibition of human NCI-H1155 cell growth in a cell viability assay.

ChaGo-K-1 = assay: cells; format: functional, cell-based, Homo sapiens; conditions: Homo sapiens, ChaGo-K-1
Description: SANGER: Inhibition of human ChaGo-K-1 cell growth in a cell viability assay.

KURAMOCHI = assay: cells; format: functional, cell-based, Homo sapiens; conditions: Homo sapiens, KURAMOCHI
Description: SANGER: Inhibition of human KURAMOCHI cell growth in a cell viability assay.

NCI-H82 = assay: cells; format: functional, cell-based, Homo sapiens; conditions: Homo sapiens, NCI-H82
Description: SANGER: Inhibition of human NCI-H82 cell growth in a cell viability assay.

AGS = assay: cells; format: functional, cell-based, Homo sapiens; conditions: Homo sapiens, AGS
Description: SANGER: Inhibition of human AGS cell growth in a cell viability assay.

KP-4 = assay: cells; format: functional, cell-based, Homo sapiens; conditions: Homo sapiens, KP-4
Description: SANGER: Inhibition of human KP-4 cell growth in a cell viability assay.

NY = assay: cells; format: functional, cell-based, Homo sapiens; conditions: Homo sapiens, NY
Description: SANGER: Inhibition of human NY cell growth in a cell viability assay.

LN-405 = assay: cells; format: functional, cell-based, Homo sapiens; conditions: Homo sapiens, LN-405
Description: SANGER: Inhibition of human LN-405 cell growth in a cell viability assay.

LB647-SCLC = assay: cells; format: functional, cell-based, Homo sapiens; conditions: Homo sapiens, LB647-SCLC
Description: SANGER: Inhibition of human LB647-SCLC cell growth in a cell viability assay.

COR-L105 = assay: cells; format: functional, cell-based, Homo sapiens; conditions: Homo sapiens, COR-L105
Description: SANGER: Inhibition of human COR-L105 cell growth in a cell viability assay.

A101D = assay: cells; format: functional, cell-based, Homo sapiens; conditions: Homo sapiens, A101D
Description: SANGER: Inhibition of human A101D cell growth in a cell viability assay.

CAPAN-1 = assay: cells; format: functional, cell-based, Homo sapiens; conditions: Homo sapiens, CAPAN-1
Description: SANGER: Inhibition of human CAPAN-1 cell growth in a cell viability assay.

NCI-H1650 = assay: cells; format: functional, cell-based, Homo sapiens; conditions: Homo sapiens, NCI-H1650
Description: SANGER: Inhibition of human NCI-H1650 cell growth in a cell viability assay.

NCI-H1355 = assay: cells; format: functional, cell-based, Homo sapiens; conditions: Homo sapiens, NCI-H1355
Description: SANGER: Inhibition of human NCI-H1355 cell growth in a cell viability assay.

Panc1005 = assay: cells; format: functional, cell-based, Homo sapiens; conditions: Homo sapiens, Panc1005
Description: SANGER: Inhibition of human PANC-10-05 cell growth in a cell viability assay.

NCI-H1623 = assay: cells; format: functional, cell-based, Homo sapiens; conditions: Homo sapiens, NCI-H1623
Description: SANGER: Inhibition of human NCI-H1623 cell growth in a cell viability assay.

WSU-NHL = assay: cells; format: functional, cell-based, Homo sapiens; conditions: Homo sapiens, WSU-NHL
Description: SANGER: Inhibition of human WSU-NHL cell growth in a cell viability assay.

EVSA-T = assay: cells; format: functional, cell-based, Homo sapiens; conditions: Homo sapiens, EVSA-T
Description: SANGER: Inhibition of human EVSA-T cell growth in a cell viability assay.

NOS-1 = assay: cells; format: functional, cell-based, Homo sapiens; conditions: Homo sapiens, NOS-1
Description: SANGER: Inhibition of human NOS-1 cell growth in a cell viability assay.

NCI-H69 = assay: cells; format: functional, cell-based, Homo sapiens; conditions: Homo sapiens, NCI-H69
Description: SANGER: Inhibition of human NCI-H69 cell growth in a cell viability assay.

S-117 = assay: cells; format: functional, cell-based, Homo sapiens; conditions: Homo sapiens, S-117
Description: SANGER: Inhibition of human S-117 cell growth in a cell viability assay.

LB1047-RCC = assay: cells; format: functional, cell-based, Homo sapiens; conditions: Homo sapiens, LB1047-RCC
Description: SANGER: Inhibition of human LB1047-RCC cell growth in a cell viability assay.

NCI-H719 = assay: cells; format: functional, cell-based, Homo sapiens; conditions: Homo sapiens, NCI-H719
Description: SANGER: Inhibition of human NCI-H719 cell growth in a cell viability assay.

5637 = assay: cells; format: functional, cell-based, Homo sapiens; conditions: Homo sapiens
Description: SANGER: Inhibition of human 5637 cell growth in a cell viability assay.

BHY = assay: cells; format: functional, cell-based, Homo sapiens; conditions: Homo sapiens, BHY
Description: SANGER: Inhibition of human BHY cell growth in a cell viability assay.

WM-115 = assay: cells; format: functional, cell-based, Homo sapiens; conditions: Homo sapiens, WM-115
Description: SANGER: Inhibition of human WM-115 cell growth in a cell viability assay.

BL-70 = assay: SANGER: Inhibition of human BL-70 cell growth in a cell viability assay.; format: functional, cell-based; conditions: Homo sapiens, BL-70
NCI-H1573 = assay: cells; format: functional, cell-based, Homo sapiens; conditions: Homo sapiens, NCI-H1573
Description: SANGER: Inhibition of human NCI-H1573 cell growth in a cell viability assay.

COLO-741 = assay: cells; format: functional, cell-based, Homo sapiens; conditions: Homo sapiens, COLO-741
Description: SANGER: Inhibition of human COLO-741 cell growth in a cell viability assay.

## COc1cccc2c1C(=O)c1c(O)c3c(c(O)c1C2=O)C[C@@](O)(C(=O)CO)C[C@@H]3O[C@H]1C[C@H](N)[C@H](O)[C@H](C)O1 [DOXORUBICIN]
NCI-H1770
  IC50: 133 nM
BEN
  IC50: > 1020 nM
NCI-H522
  IC50: 51.9 nM
GP5d
  IC50: 49.1 nM
EB-3
  IC50: 771 nM
GI-ME-N
  IC50: 93.3 nM
EGI-1
  IC50: 598 nM
MKN-7
  IC50: 690 nM
RS4-11
  IC50: 19.1 nM
NCI-H2141
  IC50: 574 nM
SCC-9
  IC50: > 1020 nM
BB49-HNC
  IC50: > 1020 nM
A-375
  IC50: 9.17 nM
NCI-H1437
  IC50: 64.6 nM
DU-4475
  IC50: 12.1 nM
LAN-6
  IC50: 315 nM
U-118-MG
  IC50: 856 nM
Ca9-22
  IC50: 50.1 nM
HD-MY-Z
  IC50: 273 nM
NCI-H1155
  IC50: 580 nM
ChaGo-K-1
  IC50: 108 nM
KURAMOCHI
  IC50: 127 nM
NCI-H82
  IC50: > 1020 nM
AGS
  IC50: 13.3 nM
KP-4
  IC50: 40.8 nM
NY
  IC50: 228 nM
LN-405
  IC50: > 1020 nM
LB647-SCLC
  IC50: 123 nM
COR-L105
  IC50: 189 nM
A101D
  IC50: 51.5 nM
CAPAN-1
  IC50: 51.8 nM
NCI-H1650
  IC50: 78.6 nM
NCI-H1355
  IC50: 152 nM
Panc1005
  IC50: 88.4 nM
NCI-H1623
  IC50: 605 nM
WSU-NHL
  IC50: 155 nM
EVSA-T
  IC50: > 1020 nM
NOS-1
  IC50: 79.1 nM
NCI-H69
  IC50: 569 nM
S-117
  IC50: > 1020 nM
LB1047-RCC
  IC50: 36 nM
NCI-H719
  IC50: 39.7 nM
5637
  IC50: 31.9 nM
BHY
  IC50: 28.9 nM
WM-115
  IC50: > 1020 nM
BL-70
  IC50: 342 nM
NCI-H1573
  IC50: > 1020 nM
COLO-741
  IC50: 195 nM

## COC1=CC(c2cc3ccccc3[nH]2)=N/C1=C\c1[nH]c(C)cc1C [OBATOCLAX MESYLATE]
NCI-H1770
  IC50: 47 nM
BEN
  IC50: 1070 nM
NCI-H522
  IC50: 181 nM
GP5d
  IC50: 225 nM
EB-3
  IC50: 173 nM
GI-ME-N
  IC50: 5010 nM
EGI-1
  IC50: 1580 nM
MKN-7
  IC50: 1890 nM
RS4-11
  IC50: 85 nM
NCI-H2141
  IC50: 1190 nM
SCC-9
  IC50: 1240 nM
BB49-HNC
  IC50: 1340 nM
A-375
  IC50: < 62.5 nM
NCI-H1437
  IC50: 408 nM
DU-4475
  IC50: 162 nM
LAN-6
  IC50: 1900 nM
U-118-MG
  IC50: 409 nM
Ca9-22
  IC50: 111 nM
HD-MY-Z
  IC50: 14600 nM
NCI-H1155
  IC50: 6960 nM
ChaGo-K-1
  IC50: 612 nM
KURAMOCHI
  IC50: 85.1 nM
NCI-H82
  IC50: 3340 nM
AGS
  IC50: 386 nM
KP-4
  IC50: 696 nM
NY
  IC50: 118 nM
LN-405
  IC50: 1390 nM
LB647-SCLC
  IC50: 15700 nM
COR-L105
  IC50: 322 nM
A101D
  IC50: 30.5 nM
CAPAN-1
  IC50: 523 nM
NCI-H1650
  IC50: 3780 nM
NCI-H1355
  IC50: 153 nM
Panc1005
  IC50: 115 nM
NCI-H1623
  IC50: 3090 nM
WSU-NHL
  IC50: 75.5 nM
EVSA-T
  IC50: 817 nM
NOS-1
  IC50: 64.1 nM
NCI-H69
  IC50: 4700 nM
S-117
  IC50: 29.1 nM
LB1047-RCC
  IC50: 358 nM
NCI-H719
  IC50: 4150 nM
5637
  IC50: 83.7 nM
BHY
  IC50: < 62.5 nM
WM-115
  IC50: 4510 nM
BL-70
  IC50: 63 nM
NCI-H1573
  IC50: 3200 nM
COLO-741
  IC50: 316 nM
